# Like-named read-outs stand apart in the source and are kept apart here.
# Assays:
# [1] = target: GSK3b (GST-full length GSK3b) (Homo sapiens (Human), UniProt P49841); test: GSK3b TR-FRET kinase assay; type: biochemical
# Method in brief: (§1)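 In this time-resolved FRET format, kinase reactions contained 200 nM biotinylated, S645-phosphorylated glycogen synthase 631-650 peptide and either isoform-specific ATP (2 μM GSK3b, 4 μM GSK3α) or 1 mM ATP. They were quenched with EDTA after 100 min at ambient temperature. Inhibition curves gave IC50 values.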
# [2] = target: GSK3α (GST-full length GSK3α) (Homo sapiens (Human), UniProt P49840); test: GSK3α TR-FRET kinase assay; type: biochemical
# GSK3α (GST-full length GSK3α), sequence (P49840 whole entry): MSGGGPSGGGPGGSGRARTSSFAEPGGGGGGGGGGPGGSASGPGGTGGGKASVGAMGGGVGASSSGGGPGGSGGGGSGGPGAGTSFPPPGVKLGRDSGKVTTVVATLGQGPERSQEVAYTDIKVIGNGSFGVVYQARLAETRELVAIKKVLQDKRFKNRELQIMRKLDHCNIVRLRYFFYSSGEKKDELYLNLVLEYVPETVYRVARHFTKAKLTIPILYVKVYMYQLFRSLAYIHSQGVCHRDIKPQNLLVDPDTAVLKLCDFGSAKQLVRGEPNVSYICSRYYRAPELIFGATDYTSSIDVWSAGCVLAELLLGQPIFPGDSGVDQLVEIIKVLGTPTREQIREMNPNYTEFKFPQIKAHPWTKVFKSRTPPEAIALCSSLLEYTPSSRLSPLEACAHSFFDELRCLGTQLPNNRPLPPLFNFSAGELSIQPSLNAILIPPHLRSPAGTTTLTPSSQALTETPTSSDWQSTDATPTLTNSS
# Method in brief: as §1
# [3] = 1 nM GSK3b, 2 μM ATP, 30 minute preincubation, Table 16, read-out: GSK3-B TR-FRET BIOCHEMICAL (TR-FRET), IC50
# [4] = 1 nM GSK3α, 4 μM ATP, 30 minute preincubation, Table 16, read-out: GSK3-A TR-FRET BIOCHEMICAL (TR-FRET), IC50
# [5] = read-out: GSK3-B (TR-FRET 1 mM ATP), GMean, IC50, 1 mM ATP, geometric mean
# [6] = read-out: GSK3-A (TR-FRET 1 mM ATP), GMean, IC50, 1 mM ATP, geometric mean
# [7] = 1 nM GSK3b, 2 μM ATP, 30 minute preincubation, read-out: GSK3-B TR-FRET BIOCHEMICAL (TR-FRET), IC50
# [8] = GSK3-B (TR-FRET 1 mM ATP), GMean, IC50, 1 mM ATP, geometric mean
# [9] = 1 nM GSK3α, 4 μM ATP, 30 minute preincubation, read-out: GSK3-A TR-FRET BIOCHEMICAL (TR-FRET), IC50
# [10] = GSK3-A (TR-FRET 1 mM ATP), GMean, IC50, 1 mM ATP, geometric mean
# [11] = 1 nM GSK3b, 2 μM ATP, 30 minute preincubation, Table 16, read-out: GSK3-B TR-FRET BIOCHEMICAL (TR-FRET)
# [12] = 1 nM GSK3α, 4 μM ATP, 30 minute preincubation, Table 16, read-out: GSK3-A TR-FRET BIOCHEMICAL (TR-FRET)
# GSK3b (GST-full length GSK3b), sequence (P49841 whole entry, canonical isoform): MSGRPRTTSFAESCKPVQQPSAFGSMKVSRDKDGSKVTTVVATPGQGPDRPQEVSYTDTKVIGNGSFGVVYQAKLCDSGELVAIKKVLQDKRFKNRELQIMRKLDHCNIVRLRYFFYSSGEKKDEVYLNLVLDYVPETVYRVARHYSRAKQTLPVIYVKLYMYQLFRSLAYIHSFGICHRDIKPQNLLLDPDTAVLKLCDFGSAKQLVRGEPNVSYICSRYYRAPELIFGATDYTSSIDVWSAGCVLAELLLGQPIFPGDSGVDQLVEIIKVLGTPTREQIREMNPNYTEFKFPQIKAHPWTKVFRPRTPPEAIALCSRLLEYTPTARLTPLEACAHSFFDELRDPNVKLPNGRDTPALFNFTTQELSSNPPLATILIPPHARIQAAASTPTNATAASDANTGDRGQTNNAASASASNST
structure (smiles),measurement,setting,value
CCC1(c2cccc(-c3c(C)cnc4ccccc34)c2)C2=C(CC(C)(C)NC2=O)Nc2n[nH]cc21 (centres unmarked) [Compound 950825],IC50,[1]; [3],> 5000 nM
same,IC50,[2]; [4],> 5000 nM
CCC1(c2cccc(-c3cnn(C)c3)c2)C2=C(CC(C)(C)C2=O)Nc2n[nH]cc21 (centres unmarked) [Compound 950826],IC50,[1]; [3],> 5000 nM
same,IC50,[2]; [4],> 5000 nM
CC[C@@]1(c2cccc(-c3cc(C)nn3C)c2)C2=C(CC(C)(C)C2=O)Nc2n[nH]cc21 [Compound 950827],IC50,[1]; [3],> 5000 nM
same,IC50,[2]; [4],> 5000 nM
CC[C@]1(c2cccc(C3CC3)c2)C2=C(CC(C)(C)NC2=O)Nc2n[nH]cc21 [Compound 950828],IC50,[1]; [3],100 to 1000 nM
same,IC50,[1]; [5],> 5000 nM
same,IC50,[2]; [4],≤ 100 nM
same,IC50,[2]; [6],1000 to 5000 nM
CC[C@]1(c2cccc(-c3cnn4cccnc34)c2)C2=C(CC(C)(C)NC2=O)Nc2n[nH]cc21 [Compound 950830],IC50,[1]; [3],100 to 1000 nM
same,IC50,[2]; [4],≤ 100 nM
CC[C@@]1(c2cccc(C(F)(F)F)c2)C2=C(CCC2=O)Nc2n[nH]cc21 [Compound 951565],IC50,[1]; [3],100 to 1000 nM
same,IC50,[2]; [4],≤ 100 nM
CC[C@]1(c2cccc(N(C)c3ncccn3)c2)C2=C(CC(C)(C)NC2=O)Nc2n[nH]c(Cl)c21 [Compound 951592],IC50,[1]; [3],> 5000 nM
same,IC50,[2]; [4],> 5000 nM
CCC1(c2cccc(C(F)(F)F)c2)C2=C(CCN(c3ncn(C)c3C)C2=O)Nc2n[nH]cc21 (centres unmarked) [Compound 951598],IC50,[1]; [3],> 5000 nM
same,IC50,[2]; [4],100 to 1000 nM
CCC1(c2cccc(-c3ccncc3F)c2)C2=C(CC(C)(C)NC2=O)Nc2n[nH]c(C(F)F)c21 (centres unmarked) [Compound 951599],IC50,[1]; [3],100 to 1000 nM
same,IC50,[2]; [4],100 to 1000 nM
CCC1(c2cccc(Oc3ncccn3)c2)C2=C(CC(C)(C)CC2=O)Nc2n[nH]c(C(F)(F)F)c21 (centres unmarked) [Compound 951604],IC50,[1]; [3],100 to 1000 nM
same,IC50,[2]; [4],≤ 100 nM
CC[C@@]1(c2cccc(Oc3ncccn3)c2)C2=C(CC(C)(C)NC2=O)Nc2n[nH]c(Cl)c21 [Compound 951605],IC50,[1]; [3],> 5000 nM
same,IC50,[2]; [4],1000 to 5000 nM
CC[C@]1(c2cccc(Oc3ncccn3)c2)C2=C(CC(C)(C)NC2=O)Nc2n[nH]c(C(F)(F)F)c21 [Compound 951607],IC50,[1]; [3],≤ 100 nM
same,IC50,[1]; [5],100 to 1000 nM
same,IC50,[2]; [4],≤ 100 nM
same,IC50,[2]; [6],≤ 100 nM
CC[C@]1(c2cccc(-c3ccncc3F)c2)C2=C(CC(C)(C)NC2=O)Nc2n[nH]c(C(F)F)c21 [Compound 951612],IC50,[1]; [3],≤ 100 nM
same,IC50,[1]; [5],1000 to 5000 nM
same,IC50,[2]; [4],≤ 100 nM
same,IC50,[2]; [6],100 to 1000 nM
CC[C@@]1(c2cccc(N(C)c3ncccn3)c2)C2=C(CC(C)(C)NC2=O)Nc2n[nH]c(Cl)c21 [Compound 951618],IC50,[1]; [3],1000 to 5000 nM
same,IC50,[2]; [4],100 to 1000 nM
CC(C)S(=O)(=O)N1CCC2(CC1)C1=C(Nc3n[nH]cc32)[C@H](F)C(C)(C)CC1=O [Compound 951701],IC50,[1]; [7],≤ 100 nM
same,IC50,[1]; [8],1000 to 5000 nM
same,IC50,[2]; [9],≤ 100 nM
same,IC50,[2]; [10],100 to 1000 nM
CCC1(c2cccc(-c3cn(C)nc3C)c2)C2=C(CC(C)(C)C2=O)Nc2n[nH]cc21 (centres unmarked) [Compound 951702],IC50,[1]; [3],100 to 1000 nM
same,IC50,[1]; [5],> 5000 nM
same,IC50,[2]; [4],≤ 100 nM
same,IC50,[2]; [6],100 to 1000 nM
CC1(C)CC(=O)C2=C(Nc3n[nH]cc3C23CCN(S(=O)(=O)c2cccc(C(F)(F)F)c2)CC3)[C@@H]1F [Compound 951703],IC50,[1]; [11],≤ 100 nM
same,IC50,[1]; [8],1000 to 5000 nM
same,IC50,[2]; [12],≤ 100 nM
same,IC50,[2]; [10],100 to 1000 nM
CC1(C)CC(=O)C2=C(Nc3n[nH]cc3C23CCCCC3)[C@@H]1F [Compound 951705],IC50,[1]; [11],≤ 100 nM
same,IC50,[2]; [12],≤ 100 nM
CC[C@]1(c2cccc(-c3cn(C)nc3C3CC3)c2)C2=C(CC(C)(C)NC2=O)Nc2n[nH]cc21 [Compound 951706],IC50,[1]; [3],≤ 100 nM
same,IC50,[2]; [4],≤ 100 nM
CC[C@]1(c2cccc(-c3cnn(C4CCCCC4)c3)c2)C2=C(CC(C)(C)NC2=O)Nc2n[nH]cc21 [Compound 951707],IC50,[1]; [3],1000 to 5000 nM
same,IC50,[2]; [4],100 to 1000 nM
Cn1ccc(S(=O)(=O)N2CCC3(CC2)C2=C(Nc4n[nH]cc43)[C@@H](F)C(C)(C)CC2=O)n1 [Compound 951708],IC50,[1]; [11],100 to 1000 nM
same,IC50,[2]; [12],≤ 100 nM
Cn1ccc(S(=O)(=O)N2CCC3(CC2)C2=C(Nc4n[nH]cc43)[C@H](F)C(C)(C)CC2=O)n1 [Compound 951709],IC50,[1]; [11],100 to 1000 nM
same,IC50,[2]; [12],≤ 100 nM
CC[C@@]1(c2cccc(-c3cn(C)nc3C)c2)C2=C(CC(C)(C)C2=O)Nc2n[nH]cc21 [Compound 951710],IC50,[1]; [3],> 5000 nM
same,IC50,[2]; [4],> 5000 nM
CC1(C)CC(=O)C2=C(Nc3n[nH]cc3C23CCCCC3)[C@H]1F [Compound 951711],IC50,[1]; [11],≤ 100 nM
same,IC50,[2]; [12],≤ 100 nM
CC1(C)CC(=O)C2=C(Nc3n[nH]cc3C23CCN(S(=O)(=O)c2cccc(C(F)(F)F)c2)CC3)[C@H]1F [Compound 951713],IC50,[1]; [11],≤ 100 nM
same,IC50,[1]; [8],1000 to 5000 nM
same,IC50,[2]; [12],≤ 100 nM
same,IC50,[2]; [10],100 to 1000 nM
CC(C)S(=O)(=O)N1CCC2(CC1)C1=C(Nc3n[nH]cc32)[C@@H](F)C(C)(C)CC1=O [Compound 951714],IC50,[1]; [7],≤ 100 nM
same,IC50,[1]; [8],100 to 1000 nM
same,IC50,[2]; [9],≤ 100 nM
same,IC50,[2]; [10],100 to 1000 nM
CC1(C)CC(=O)C2=C(C1)Nc1n[nH]cc1[C@]21CCN(S(=O)(=O)CC2CC2)C1 [Compound 951723],IC50,[1]; [7],≤ 100 nM
same,IC50,[1]; [8],100 to 1000 nM
same,IC50,[2]; [9],≤ 100 nM
same,IC50,[2]; [10],≤ 100 nM
CC1(C)CC(=O)C2=C(C1)Nc1n[nH]cc1[C@@]21CCN(S(=O)(=O)CC2CC2)C1 [Compound 951724],IC50,[1]; [11],≤ 100 nM
same,IC50,[2]; [12],≤ 100 nM
Cn1cc(S(=O)(=O)N2CC[C@]3(C2)C2=C(CC(C)(C)CC2=O)Nc2n[nH]cc23)cn1 [Compound 951725],IC50,[1]; [11],≤ 100 nM
same,IC50,[1]; [8],1000 to 5000 nM
same,IC50,[2]; [12],≤ 100 nM
same,IC50,[2]; [10],100 to 1000 nM
Cn1cc(S(=O)(=O)N2CC[C@@]3(C2)C2=C(CC(C)(C)CC2=O)Nc2n[nH]cc23)cn1 [Compound 951726],IC50,[1]; [11],≤ 100 nM
same,IC50,[1]; [8],1000 to 5000 nM
same,IC50,[2]; [12],≤ 100 nM
same,IC50,[2]; [10],1000 to 5000 nM
CC[C@]1(c2cccc(N(C)c3ncccn3)c2)C2=C(CC(C)(C)NC2=O)Nc2n[nH]c(C(F)F)c21 [Compound 951736],IC50,[1]; [3],100 to 1000 nM
same,IC50,[2]; [4],≤ 100 nM
CC1(C)CC(=O)C2=C(C1)Nc1n[nH]cc1[C@]21CCN(S(=O)(=O)c2ccccc2)C1 [Compound 951787],IC50,[1]; [7],≤ 100 nM
same,IC50,[1]; [8],100 to 1000 nM
same,IC50,[2]; [9],≤ 100 nM
same,IC50,[2]; [10],≤ 100 nM
CC1(C)CC(=O)C2=C(C1)Nc1n[nH]cc1[C@@]21CCN(S(=O)(=O)c2ccccc2)C1 [Compound 951788],IC50,[1]; [11],≤ 100 nM
same,IC50,[1]; [8],1000 to 5000 nM
same,IC50,[2]; [12],≤ 100 nM
same,IC50,[2]; [10],100 to 1000 nM
COc1cccc(S(=O)(=O)N2CC[C@]3(C2)C2=C(CC(C)(C)CC2=O)Nc2n[nH]cc23)c1 [Compound 951789],IC50,[1]; [7],≤ 100 nM
same,IC50,[1]; [8],100 to 1000 nM
same,IC50,[2]; [9],≤ 100 nM
same,IC50,[2]; [10],100 to 1000 nM
COc1cccc(S(=O)(=O)N2CC[C@@]3(C2)C2=C(CC(C)(C)CC2=O)Nc2n[nH]cc23)c1 [Compound 951790],IC50,[1]; [11],≤ 100 nM
same,IC50,[2]; [12],≤ 100 nM
CCC1(c2cccc(-c3cnn(CC4CCOC4)c3)c2)C2=C(CC(C)(C)NC2=O)Nc2n[nH]cc21 (centres unmarked) [Compound 951836],IC50,[1]; [3],1000 to 5000 nM
same,IC50,[2]; [4],100 to 1000 nM
CC[C@]1(c2cccc(-c3cnn(-c4ccccc4)c3C(F)(F)F)c2)C2=C(CC(C)(C)NC2=O)Nc2n[nH]cc21 [Compound 951837],IC50,[1]; [3],100 to 1000 nM
same,IC50,[2]; [4],100 to 1000 nM
CC[C@]1(c2cccc(-c3cnn(Cc4ccc(OC)cc4)c3)c2)C2=C(CC(C)(C)NC2=O)Nc2n[nH]cc21 [Compound 951838],IC50,[1]; [3],1000 to 5000 nM
same,IC50,[2]; [4],100 to 1000 nM
